Measured values as given in PubChem BioAssay (NCI).
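Compound exposure: 48 hours, 5 concentrations, 96-well plates. At the GI50, growth is halved. TGI is the concentration that stops growth completely.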

Assays:
Test in all cases: growth of human tumour cells (NCI), 48 h
SK-MEL-28 melanoma = system: SK-MEL-28 melanoma
ACHN renal = system: ACHN renal
T-47D breast = system: T-47D breast
OVCAR-3 ovarian = system: OVCAR-3 ovarian
M14 melanoma = system: M14 melanoma
EKVX NSCLC = system: EKVX NSCLC
BT-549 breast = system: BT-549 breast
SK-MEL-5 melanoma = system: SK-MEL-5 melanoma
UACC-257 melanoma = system: UACC-257 melanoma
HOP-62 NSCLC = system: HOP-62 NSCLC
SR leukemia = system: SR leukemia
SF-268 CNS = system: SF-268 CNS
UACC-62 melanoma = system: UACC-62 melanoma
RXF 393 renal = system: RXF 393 renal
SW-620 colon = system: SW-620 colon
IGROV1 ovarian = system: IGROV1 ovarian
HOP-92 NSCLC = system: HOP-92 NSCLC
LOX IMVI melanoma = system: LOX IMVI melanoma
SNB-19 CNS = system: SNB-19 CNS
HCC-2998 colon = system: HCC-2998 colon
NCI/ADR-RES ovarian = system: NCI/ADR-RES ovarian
PC-3 prostate = system: PC-3 prostate
OVCAR-4 ovarian = system: OVCAR-4 ovarian
SNB-75 CNS = system: SNB-75 CNS
TK-10 renal = system: TK-10 renal
NCI-H226 lung = system: NCI-H226 lung
CAKI-1 renal = system: CAKI-1 renal
OVCAR-5 ovarian = system: OVCAR-5 ovarian
KM12 colon = system: KM12 colon
SK-MEL-2 melanoma = system: SK-MEL-2 melanoma
MDA-MB-231 breast = system: MDA-MB-231 breast
SF-295 CNS = system: SF-295 CNS
OVCAR-8 ovarian = system: OVCAR-8 ovarian
HS 578T breast = system: HS 578T breast
A498 renal = system: A498 renal
UO-31 renal = system: UO-31 renal
NCI-H460 lung = system: NCI-H460 lung
HT29 colon = system: HT29 colon
MCF7 breast = system: MCF7 breast
RPMI-8226 leukemia = system: RPMI-8226 leukemia
NCI-H522 lung = system: NCI-H522 lung
786-0 renal = system: 786-0 renal
K-562 leukemia = system: K-562 leukemia
MDA-MB-435 = system: MDA-MB-435
MALME-3M melanoma = system: MALME-3M melanoma
HCT-15 colon = system: HCT-15 colon
U251 CNS = system: U251 CNS
A549 NSCLC = system: A549 NSCLC
HCT-116 colon = system: HCT-116 colon
CCRF-CEM leukemia = system: CCRF-CEM leukemia
HL-60(TB) leukemia = system: HL-60(TB) leukemia
SN12C renal = system: SN12C renal
COLO 205 colon = system: COLO 205 colon
NCI-H23 lung = system: NCI-H23 lung
SK-OV-3 ovarian = system: SK-OV-3 ovarian
SF-539 CNS = system: SF-539 CNS
DU-145 prostate = system: DU-145 prostate

Question: Which results are given for `CC1CN=C(c2cccc(-c3ccc(-c4ccccc4)o3)c2)N1` (centres undefined)?
Answer: GI50 (SK-MEL-28 melanoma): 1.81 µM; TGI (SK-MEL-28 melanoma): 4.02 µM; GI50 (ACHN renal): 1.85 µM; TGI (ACHN renal): 3.89 µM; GI50 (T-47D breast): 1.92 µM; TGI (T-47D breast): 5.05 µM; GI50 (OVCAR-3 ovarian): 3.47 µM; TGI (OVCAR-3 ovarian): 13.7 µM; GI50 (M14 melanoma): 2.23 µM; TGI (M14 melanoma): 5.63 µM; GI50 (EKVX NSCLC): 4.35 µM; TGI (EKVX NSCLC): 18.9 µM; GI50 (BT-549 breast): 10.5 µM; TGI (BT-549 breast): 22.5 µM; GI50 (SK-MEL-5 melanoma): 1.71 µM; TGI (SK-MEL-5 melanoma): 3.11 µM; GI50 (UACC-257 melanoma): 2.31 µM; TGI (UACC-257 melanoma): 4.62 µM; GI50 (HOP-62 NSCLC): 2.6 µM; TGI (HOP-62 NSCLC): 6.37 µM; GI50 (SR leukemia): 1.86 µM; TGI (SR leukemia): 5.32 µM; GI50 (SF-268 CNS): 1.83 µM; TGI (SF-268 CNS): 3.78 µM; GI50 (UACC-62 melanoma): 1.94 µM; TGI (UACC-62 melanoma): 4.06 µM; GI50 (RXF 393 renal): 1.72 µM; TGI (RXF 393 renal): 3.36 µM; GI50 (SW-620 colon): 1.85 µM; TGI (SW-620 colon): 3.69 µM; GI50 (IGROV1 ovarian): 2.08 µM; TGI (IGROV1 ovarian): 5.14 µM; GI50 (HOP-92 NSCLC): 2.13 µM; TGI (HOP-92 NSCLC): 5.67 µM; GI50 (LOX IMVI melanoma): 1.73 µM; TGI (LOX IMVI melanoma): 3.22 µM; GI50 (SNB-19 CNS): 2.29 µM; TGI (SNB-19 CNS): 5.47 µM; GI50 (HCC-2998 colon): 1.95 µM; TGI (HCC-2998 colon): 3.65 µM; GI50 (NCI/ADR-RES ovarian): 3.57 µM; TGI (NCI/ADR-RES ovarian): 25.9 µM; GI50 (PC-3 prostate): 2.04 µM; TGI (PC-3 prostate): 5.17 µM; GI50 (OVCAR-4 ovarian): 3.01 µM; TGI (OVCAR-4 ovarian): 19.5 µM; GI50 (SNB-75 CNS): 1.47 µM; TGI (SNB-75 CNS): 2.84 µM; GI50 (TK-10 renal): 4.04 µM; TGI (TK-10 renal): 14.4 µM; GI50 (NCI-H226 lung): 14.3 µM; TGI (NCI-H226 lung): 39.4 µM; GI50 (CAKI-1 renal): 2.55 µM; TGI (CAKI-1 renal): 9.19 µM; GI50 (OVCAR-5 ovarian): 2.11 µM; TGI (OVCAR-5 ovarian): 5.41 µM; GI50 (KM12 colon): 2.66 µM; TGI (KM12 colon): 7.92 µM; GI50 (SK-MEL-2 melanoma): 1.74 µM; TGI (SK-MEL-2 melanoma): 3.57 µM; GI50 (MDA-MB-231 breast): 2.2 µM; TGI (MDA-MB-231 breast): 4.49 µM; GI50 (SF-295 CNS): 1.81 µM; TGI (SF-295 CNS): 3.84 µM; GI50 (OVCAR-8 ovarian): 5.98 µM; TGI (OVCAR-8 ovarian): 23.2 µM; GI50 (HS 578T breast): 2.57 µM; TGI (HS 578T breast): 7.26 µM; GI50 (A498 renal): 2.74 µM; TGI (A498 renal): 10.6 µM; GI50 (UO-31 renal): 1.62 µM; TGI (UO-31 renal): 3.32 µM; GI50 (NCI-H460 lung): 1.83 µM; TGI (NCI-H460 lung): 4.24 µM; GI50 (HT29 colon): 2.39 µM; TGI (HT29 colon): 4.93 µM; GI50 (MCF7 breast): 1.71 µM; TGI (MCF7 breast): 3.59 µM; GI50 (RPMI-8226 leukemia): 2.43 µM; TGI (RPMI-8226 leukemia): 7.05 µM; GI50 (NCI-H522 lung): 1.67 µM; TGI (NCI-H522 lung): 3.65 µM; GI50 (786-0 renal): 1.84 µM; TGI (786-0 renal): 3.8 µM; GI50 (K-562 leukemia): 1.72 µM; TGI (K-562 leukemia): 3.91 µM; GI50 (MDA-MB-435): 1.61 µM; TGI (MDA-MB-435): 2.99 µM; GI50 (MALME-3M melanoma): 1.82 µM; TGI (MALME-3M melanoma): 3.63 µM; GI50 (HCT-15 colon): 1.66 µM; TGI (HCT-15 colon): 3.47 µM; GI50 (U251 CNS): 2.47 µM; TGI (U251 CNS): 5.88 µM; GI50 (A549 NSCLC): 3.68 µM; TGI (A549 NSCLC): 11.2 µM; GI50 (HCT-116 colon): 1.81 µM; TGI (HCT-116 colon): 3.69 µM; GI50 (CCRF-CEM leukemia): 2.44 µM; TGI (CCRF-CEM leukemia): 6.78 µM; GI50 (HL-60(TB) leukemia): 2.28 µM; TGI (HL-60(TB) leukemia): 4.7 µM; GI50 (SN12C renal): 3.59 µM; TGI (SN12C renal): 15.4 µM; GI50 (COLO 205 colon): 1.61 µM; TGI (COLO 205 colon): 3.25 µM; GI50 (NCI-H23 lung): 2.97 µM; TGI (NCI-H23 lung): 12.5 µM; GI50 (SK-OV-3 ovarian): 4.2 µM; TGI (SK-OV-3 ovarian): 14.8 µM; GI50 (SF-539 CNS): 1.76 µM; TGI (SF-539 CNS): 3.42 µM; GI50 (DU-145 prostate): 4.05 µM; TGI (DU-145 prostate): 15.8 µM
